Data on three molecules can be found in ChEMBL document CHEMBL1129619, “New series of potent, orally bioavailable, non-peptidic cyclic sulfones as HIV-1 protease inhibitors” (J Med Chem, 1996).

Data set [1] in a line: Selective ratio between EC50 ancd CC50 values calculated. The format is functional.
Data set [2] is described as follows: Cytotoxic Concentration needed to produce 50% reduction in the number of viable MT2 cells assayed by metabolism of a tetrazolium dye. It is filed as cell-based. To be noted: human.
For data set [3], the system named is MT2. The experiment in a line: Concentration needed to inhibit HIV-1 virus replication in MT2 cells by 50% as determined by XTT assay. The format is functional, cell-based. To be noted: Homo sapiens. (Formazan colour is commonly taken as a measure of viable cells.)
In data set [4] the target is Human immunodeficiency virus type 1 protease (Human immunodeficiency virus 1, UniProt Q72874). The experiment in a line: Concentration needed to inhibit HIV- protease activity by 50%.
Data set [5] relates to MT2. Description: Concentration needed to inhibit HIV-1 virus replication in MT2 cells by 90% as determined by XTT assay. The format is functional. To be noted: Homo sapiens.
The nature of data set [6]: Selectivity ratio between EC50 ancd CC50 values of the compound. The format is functional.

Each structure is given as a SMILES string.

For orientation: CC50 means the concentration giving 50% cytotoxicity. One may read the EC50 as the concentration that produces a half-maximal response. Broadly, the IC50 is the concentration at which inhibition is half-maximal. Read a low IC50 as greater potency in that assay. For the molecule `Nc1cccc(CO[C@@H]2[C@H](O)[C@@H](O)[C@@H](OCc3cccc(N)c3)[C@@H](Cc3ccccc3)S(=O)(=O)[C@@H]2Cc2ccccc2)c1`, the SI in data set [1] is 3330. In data set [2], this molecule gave a CC50 of 30 µM. In the data set with MT2 [3], this molecule had an EC50 of 9 nM. Besides, in data set [4], inhibition was half-maximal at 1 nM (IC50).
Broadly, the EC90 is the concentration at which the effect reaches the 90% level. Consider `O=S1(=O)[C@H](Cc2ccccc2)[C@H](OCc2cncs2)[C@H](O)[C@@H](O)[C@@H](OCc2cncs2)[C@H]1Cc1ccccc1`, for which the EC90 with MT2 [5] was 40 nM. This molecule displayed a CC50 in data set [2] of 40 µM. The EC50 in the data set on MT2 [3] worked out at 6.5 nM. Besides, in data set [6], the SI was determined as 6150. In data set [4], the IC50 is 0.3 nM.
In the same order, the values of `O=S1(=O)[C@H](Cc2ccccc2)[C@H](OCc2ccccc2)[C@H](O)[C@@H](O)[C@@H](OCc2ccccc2)[C@H]1Cc1ccccc1` are 70 nM, 6 µM, 40 nM, 150 and 0.6 nM.
